Consider 9 compounds from ChEMBL document CHEMBL1201862, “PubChem BioAssay data set” (2004).

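Where inhibition never reached the appropriate level, the endpoint shown equals the highest concentration tested. Otherwise, values were interpolated linearly from a five-concentration, 48-hour dose response in 96-well plates. At the GI50, growth is halved.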 Calls of active or inactive are those of the source. Cut-off read from the data, not from the text of the source: active = GI50 up to about 1.1 µM and inactive = higher.

Common to all, as to assay: NCI tumour cell line growth inhibition, 48 h
For assay [1], the system named is A498.
The subject of assay [2] is CAKI-1.
The test system of assay [3] is CCRF-CEM.
The test system of assay [4] is COLO 205.
Assay [5] relates to HCC 2998.
For assay [6], the system named is HCT-15.
Assay [7] concerns HOP-62.
The subject of assay [8] is IGROV-1.
Assay [9] deals with K562.
The test system of assay [10] is NCI-H23.
Assay [11] deals with NCI-H460.
In assay [12] the test system is OVCAR-3.
Assay [13] relates to SF-539.
Assay [14] deals with U-251.
Assay [15] relates to UACC-257.
Assay [16] concerns UO-31.
The test system of assay [17] is HL-60.
The subject of assay [18] is NCI-H522.

As for `O=C(NC(=O)c1cc2cc(Br)cc(Br)c2oc1=O)Oc1ccccc1`, the GI50 in assay [1] is > 100 µM (inactive); in assay [2], 43 µM (inactive); in assay [3], > 100 µM (inactive); in assay [4], > 100 µM (inactive); in assay [5], > 100 µM (inactive); in assay [6], greater than 100 µM. Further, the GI50 in assay [7] is 43.7 µM (inactive); in assay [8] it was 50.7 µM (inactive); in [9] it was > 100 µM (inactive); in assay [10] it was > 100 µM (inactive); in assay [11], > 100 µM (inactive); in [12], > 100 µM (inactive). Also, the GI50 in [13] was 87.3 µM (inactive); in [14] it was 28.2 µM (inactive); in assay [15], 59.2 µM (inactive); in assay [16] it was > 100 µM (inactive).
In the case of `COC(=O)C(c1n[nH]c2ccccc12)C(C(=O)OC)c1n[nH]c2ccccc12` (stereo not given), the GI50 in assay [1] is > 100 µM (inactive); in [3], 24.5 µM (inactive); in assay [5], > 100 µM (inactive); in assay [6], greater than 100 µM; in assay [17], 16 µM (inactive); in assay [7], > 100 µM (inactive). The GI50 in [8] was > 100 µM (inactive); in [9], 28 µM (inactive); in [10], 30.9 µM (inactive); in assay [11] it was 58.3 µM (inactive); in assay [12], 41.8 µM (inactive); in assay [13], 17 µM (inactive). The GI50 in [14] is > 100 µM (inactive); in [15] it was 54.7 µM (inactive); in assay [16] it was > 100 µM (inactive).
With `Cc1cc(C)nc(NS(=O)(=O)c2ccc(NC(=O)c3cccc4c(Nc5ccc(S(=O)(=O)N=C(N)N)cc5)c5ccc(Cl)cc5nc34)cc2)n1`, the GI50 in assay [1] is > 100 µM (inactive); in [3] it was 21.4 µM (inactive); in assay [5] it was 19.8 µM (inactive); in [6] it was 39.4 µM; in assay [7], 43.7 µM (inactive); in assay [9], 26.2 µM (inactive). Besides, the GI50 was 30.8 µM (inactive) in assay [10]; 42.8 µM (inactive) in assay [11]; 18.2 µM (inactive) in assay [18]; 22.2 µM (inactive) in assay [12]; 17.2 µM (inactive) in assay [13]; 15.8 µM (inactive) in assay [14]. The GI50 in assay [15] is 20.2 µM (inactive); in assay [16] it was 41.8 µM (inactive).
As to `Nc1ccc(C(c2ccccc2)(c2ccccc2)c2ccccc2)cc1`, the GI50 is > 100 µM (inactive) in assay [1]; 29.6 µM (inactive) in assay [3]; > 100 µM (inactive) in assay [4]; > 100 µM (inactive) in assay [5]; 78.7 µM in assay [6]; 26.8 µM (inactive) in assay [17]. In addition, the GI50 is 27.9 µM (inactive) in assay [7]; 52.1 µM (inactive) in assay [8]; 70.6 µM (inactive) in assay [9]; 30.1 µM (inactive) in [10]; 28.8 µM (inactive) in assay [11]; 64.6 µM (inactive) in assay [12]. For the same compound, the GI50 is 37 µM (inactive) in assay [13], 29.7 µM (inactive) in [14] and 34.3 µM (inactive) in [15].
`Cc1cccc(C(C)(C)C)c1NC(=O)CC1C(=O)Nc2ccccc2S1(=O)=O` (stereo not given): the GI50 was 14.9 µM (inactive) in assay [1]; 16.8 µM (inactive) in assay [2]; 2.34 µM (inactive) in assay [3]; 8.11 µM (inactive) in [5]; 4.76 µM in assay [6]; 3.25 µM (inactive) in assay [17]. Besides, the GI50 is 9.33 µM (inactive) in [8]; 2.84 µM (inactive) in [9]; 5.38 µM (inactive) in assay [10]; 11 µM (inactive) in [11]; 5.55 µM (inactive) in [12]; 3.14 µM (inactive) in assay [13]. Moreover, the GI50 was 8.28 µM (inactive) in [14], 27.6 µM (inactive) in assay [15] and 11.2 µM (inactive) in assay [16].
Turning to `O=C(CC1Sc2ccccc2NC1=O)Nc1cc(Cl)ccc1Cl` (stereo not given), the GI50 is > 100 µM (inactive) in assay [1]; > 100 µM (inactive) in [2]; 31.2 µM (inactive) in assay [3]; > 100 µM (inactive) in assay [5]; greater than 100 µM in assay [6]; > 100 µM (inactive) in [17]. In addition, the GI50 in assay [8] was > 100 µM (inactive); in [9], > 100 µM (inactive); in assay [10], > 100 µM (inactive); in assay [11], > 100 µM (inactive); in assay [12], > 100 µM (inactive); in assay [13], 92.3 µM (inactive). Also, the GI50 in assay [14] is 49.9 µM (inactive); in [15] it was > 100 µM (inactive); in assay [16], > 100 µM (inactive).
Regarding `COc1ccc(C2C(Cl)C(=O)N2NC(=O)c2ccc(NC(C)=O)cc2)cc1` (stereo not given), the GI50 in [1] is > 100 µM (inactive); in [2], > 100 µM (inactive); in [3], > 100 µM (inactive); in assay [4] it was > 100 µM (inactive); in assay [6] it was greater than 100 µM; in assay [17], > 100 µM (inactive). Further, the GI50 in assay [7], in assay [8], in [9], in assay [10], in [11] and in [18] was > 100 µM (inactive) each time. Moreover, the GI50 in assay [12], in [13], in assay [14], in assay [15] and in [16] was > 100 µM (inactive) in each case.
For `COC(=O)[C@H]1COC(=S)N1C(=O)[C@@H](C)[C@H](O)C(C)C`, the GI50 in assay [1] is > 100 µM (inactive); in assay [2], > 100 µM (inactive); in assay [3] it was > 100 µM (inactive); in [4], > 100 µM (inactive); in assay [5], > 100 µM (inactive); in [6], greater than 100 µM. For the same compound, the GI50 in assay [17], in assay [7], in assay [8], in [9], in [10] and in assay [11] was > 100 µM (inactive) each time. Further, the GI50 in [12], in assay [13], in assay [14], in assay [15] and in assay [16] was > 100 µM (inactive) in each case.
On to `Cc1c(C(=O)CC(=O)C(=O)Nc2ccc(Cl)cc2)[n+]([O-])c2ccccc2[n+]1[O-]`, for which the GI50 in assay [1] is > 100 µM (inactive); in assay [2] it was > 100 µM (inactive); in assay [3], > 100 µM (inactive); in assay [4], > 100 µM (inactive); in assay [6], greater than 100 µM; in assay [17], > 100 µM (inactive). Besides, the GI50 in assay [8], in assay [9], in assay [10], in [11], in assay [18] and in [12] was > 100 µM (inactive) in each case. Besides, the GI50 in assay [13], in assay [14], in assay [15] and in assay [16] was > 100 µM (inactive) in each case.
